This note sets out measurements from article PMC3705312, “Extracts, Anthocyanins and Procyanidins from Aronia melanocarpa as Radical Scavengers and Enzyme Inhibitors” (Nutrients, 2013).

Assay [1] is described as follows: Scavenging of the diphenylpicrylhydrazyl (DPPH) radical. Particulars: average ± SD; for DPPH % scavenging at 10.4 µg/mL: sample concentration 10.4 µg/mL, 5 min, values marked ^; for DPPH IC50 (concentration to give 50% scavenging): 5 min reaction, A517, values marked #, triplicate. (In general: Loss of DPPH colour is used to gauge radical scavenging.)
Experimental: Scavenging activity towards the DPPH radical was carried out as previously described [18]. Briefly, to 2.95 mL of a methanolic solution of DPPH (A517 1.0), 50 µL of the test compound (dissolved in DMSO or MeOH) was added. The mixture was stirred, and the decrease in UV absorbance at 517 nm was measured over a period of 5 min. Percent radical scavenging was calculated as 100 × (Astart − Aend)/(Astart), where Astart is the absorbance before addition of the test compound and Aend is the absorbance value after 5 min of reaction time. Values were corrected for absorbance of the test substances.
For the next assay, the target named is T1, 15-LO from soybeans (Glycine max, UniProt P08170).
T1 construct: purchased Sigma-Aldrich
T1 sequence (P08170 1-839): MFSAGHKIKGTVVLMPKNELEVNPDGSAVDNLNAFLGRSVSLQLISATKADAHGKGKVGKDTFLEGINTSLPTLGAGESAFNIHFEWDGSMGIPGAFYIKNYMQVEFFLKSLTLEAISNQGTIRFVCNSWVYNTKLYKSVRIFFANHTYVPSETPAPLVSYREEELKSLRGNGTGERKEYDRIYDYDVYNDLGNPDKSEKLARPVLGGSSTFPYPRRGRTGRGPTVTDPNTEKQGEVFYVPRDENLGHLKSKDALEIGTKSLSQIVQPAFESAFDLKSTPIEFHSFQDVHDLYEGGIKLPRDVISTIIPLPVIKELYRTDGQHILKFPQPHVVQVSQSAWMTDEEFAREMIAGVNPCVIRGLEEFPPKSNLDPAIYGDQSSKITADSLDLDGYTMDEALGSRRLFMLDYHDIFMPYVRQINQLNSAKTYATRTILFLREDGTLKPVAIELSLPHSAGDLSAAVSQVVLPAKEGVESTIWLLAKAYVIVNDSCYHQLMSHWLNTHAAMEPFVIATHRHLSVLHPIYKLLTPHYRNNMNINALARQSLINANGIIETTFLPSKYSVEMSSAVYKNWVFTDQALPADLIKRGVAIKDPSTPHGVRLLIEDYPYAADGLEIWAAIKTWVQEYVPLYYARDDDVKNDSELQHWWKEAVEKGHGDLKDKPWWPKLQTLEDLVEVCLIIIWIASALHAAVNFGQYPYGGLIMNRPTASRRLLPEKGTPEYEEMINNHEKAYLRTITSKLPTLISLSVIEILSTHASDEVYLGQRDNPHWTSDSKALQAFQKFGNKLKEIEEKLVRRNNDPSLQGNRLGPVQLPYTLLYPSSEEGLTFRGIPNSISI
The experiment in a line: Inhibition of 15-lipoxygenase (15-LO). To be noted: borate buffer pH 9.00, average ± SD, triplicate. Type of assay: biochemical, soybean.

The next assay concerns the target T2, XO from bovine milk (Bos taurus, UniProt P80457).
T2 construct: purchased Sigma-Aldrich; host or cells: bovine milk
The experiment in a line: Inhibition of xanthine oxidase (XO), hypoxanthine as substrate. Format: biochemical. Particulars: average ± SD. The protocol: (§1) Procyanidin B2 and B5 reference compounds were obtained from Plant Polyphenols LLC (Boyce, LA, USA). All other reagents were of the highest purity available.
The XO inhibitory activity with hypoxanthine as the substrate was measured spectrophotometrically based on the procedure of Noro et al., with some modifications. The assay mixture consisting of 50 µL of test compound (dissolved in DMSO or MeOH) or (for blanks) DMSO or MeOH alone, 1.85 mL of 50 mM sodium-potassium phosphate buffer (pH = 7.5) and 100 µL of enzyme solution (1.8 U/mL in 50 mM sodium-potassium phosphate buffer, pH = 7.5) was prepared immediately before use. Substrate solution (1.0 mL, 20 µg/mL hypoxanthine in distilled water) was added. The mixture was stirred, and the increase in absorbance at 290 nm was measured over a period of 5 min. Percent enzyme inhibition was calculated as 100 × [(∆A1 − ∆A2)/∆A1], where ∆A1 and ∆A2 are values for the increase in A290 for the sample without test substance and with test substance, respectively.

In assay [2] the target is T3, α-glucosidase from baker's yeast (Saccharomyces cerevisiae, UniProt P53341).
T3 construct: purchased Sigma-Aldrich
Nature of the assay: biochemical. To be noted: 15 min, pH 7.0, average ± SD, triplicate. The protocol:
as §1
The α-glucosidase inhibitory activity was determined by a slight modification of the procedure reported by Matsui et al.. The enzyme solution was set at 800 mU/mL of α-glucosidase in a 50 mM phosphate buffer (pH = 7.0) containing 100 mM sodium chloride. For each assay, 20 µL of the test solution in DMSO or MeOH and 80 µL of the enzyme solution were preincubated at 37 °C for 5 min. The reaction was started by adding 1.9 mL of substrate solution (0.7 mM PNP-G in the buffer), and the solution was then incubated at 37 °C for 15 min. After the reaction had been stopped by adding 2.0 mL of a 0.5 M Tris solution, the absorbance of PNP released from PNP-G at 400 nm was measured. Percent enzyme inhibition was calculated as 100 × (AB − AS)/(AB), where AB and AS represent the absorbance of the blank and sample, respectively.

Setting [3] is: linoleic acid 134 µM, read-out: 15-Lipoxygenase IC50 (converted).
Where [4] appears, read: 37 °C, read-out: α-Glucosidase IC50 (converted).
Setting [5] is: read-out: Xanthine oxidase % inhibition at a concentration of 42 µg/mL, 42 µg/mL.

Read-outs that look alike come from different tables or passages of the source.

T2 sequence (P80457 whole entry): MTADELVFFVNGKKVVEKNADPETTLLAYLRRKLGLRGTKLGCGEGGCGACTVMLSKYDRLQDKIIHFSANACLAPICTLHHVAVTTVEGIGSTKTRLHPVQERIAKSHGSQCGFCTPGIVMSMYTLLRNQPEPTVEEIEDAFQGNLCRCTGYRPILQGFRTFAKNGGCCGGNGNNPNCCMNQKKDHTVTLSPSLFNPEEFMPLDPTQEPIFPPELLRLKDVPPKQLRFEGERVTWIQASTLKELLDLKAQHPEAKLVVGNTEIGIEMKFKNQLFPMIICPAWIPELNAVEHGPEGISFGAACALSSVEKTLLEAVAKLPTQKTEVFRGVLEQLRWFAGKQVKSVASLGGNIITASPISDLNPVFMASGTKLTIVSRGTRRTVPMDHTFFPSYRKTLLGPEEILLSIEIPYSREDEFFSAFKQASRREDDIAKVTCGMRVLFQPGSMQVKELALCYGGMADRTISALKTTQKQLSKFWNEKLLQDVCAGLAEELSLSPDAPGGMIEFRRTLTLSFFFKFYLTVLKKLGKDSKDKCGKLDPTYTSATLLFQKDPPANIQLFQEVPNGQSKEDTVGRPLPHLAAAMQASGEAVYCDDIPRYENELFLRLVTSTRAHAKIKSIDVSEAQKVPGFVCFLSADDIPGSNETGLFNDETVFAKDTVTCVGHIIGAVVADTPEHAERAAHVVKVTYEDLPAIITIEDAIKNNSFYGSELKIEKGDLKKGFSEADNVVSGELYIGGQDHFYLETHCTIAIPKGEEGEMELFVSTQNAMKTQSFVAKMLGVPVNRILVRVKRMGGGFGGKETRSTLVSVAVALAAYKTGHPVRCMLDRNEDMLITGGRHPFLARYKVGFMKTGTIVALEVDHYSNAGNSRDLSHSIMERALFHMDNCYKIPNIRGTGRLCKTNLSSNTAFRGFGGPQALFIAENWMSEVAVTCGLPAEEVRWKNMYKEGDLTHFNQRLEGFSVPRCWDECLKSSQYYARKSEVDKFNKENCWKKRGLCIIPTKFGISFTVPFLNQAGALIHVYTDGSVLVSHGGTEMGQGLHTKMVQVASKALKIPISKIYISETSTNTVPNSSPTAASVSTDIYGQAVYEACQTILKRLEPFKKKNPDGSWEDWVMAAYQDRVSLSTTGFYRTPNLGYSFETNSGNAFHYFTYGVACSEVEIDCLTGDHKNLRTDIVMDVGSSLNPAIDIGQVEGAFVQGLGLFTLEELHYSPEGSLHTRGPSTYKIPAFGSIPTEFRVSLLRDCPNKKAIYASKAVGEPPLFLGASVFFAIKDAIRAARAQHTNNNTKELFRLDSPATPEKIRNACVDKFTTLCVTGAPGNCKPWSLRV
T3 sequence (P53341 whole entry): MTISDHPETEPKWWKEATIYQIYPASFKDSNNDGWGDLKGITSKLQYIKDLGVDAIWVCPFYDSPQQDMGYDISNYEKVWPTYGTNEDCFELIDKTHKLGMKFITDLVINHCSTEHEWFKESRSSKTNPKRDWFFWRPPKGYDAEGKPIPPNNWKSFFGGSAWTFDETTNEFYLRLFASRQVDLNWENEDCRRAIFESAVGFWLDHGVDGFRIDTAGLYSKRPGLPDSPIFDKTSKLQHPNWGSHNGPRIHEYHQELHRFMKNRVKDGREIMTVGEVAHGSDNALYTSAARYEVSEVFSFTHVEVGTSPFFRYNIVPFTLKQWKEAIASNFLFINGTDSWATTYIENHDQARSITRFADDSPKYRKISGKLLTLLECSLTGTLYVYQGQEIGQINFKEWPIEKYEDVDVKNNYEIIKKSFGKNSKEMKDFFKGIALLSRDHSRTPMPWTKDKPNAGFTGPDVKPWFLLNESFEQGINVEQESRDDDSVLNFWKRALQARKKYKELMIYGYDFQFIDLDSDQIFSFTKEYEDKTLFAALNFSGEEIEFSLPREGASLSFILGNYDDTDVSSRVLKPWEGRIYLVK

A word on the IC50: it is the midpoint of a concentration-inhibition curve. In the case of `OCC1OC(Oc2cc3c(O)cc(O)cc3[o+]c2-c2ccc(O)c(O)c2)C(O)C(O)C1O` (centres unmarked) [Compound 1, cyanidin 3-galactoside], the “DPPH % scavenging at 10.4 µg/mL” value in assay [1] is given as 39.0 ± 2.9 ^^ %. Also, the IC50 on 15-LO from soybeans (setting [3]) was 159 µM; in assay [2] (setting [4]), 3.43 µM. In addition, the inhibition at 17 µg/mL on XO from bovine milk (read-out: Xanthine oxidase % inhibition at a concentration of 17 µg/mL, 17 µg/mL) was found to be 11.9 ± 4.4%.

As to `OCC1OC(Oc2cc3c(O)cc(O)cc3[o+]c2-c2ccc(O)c(O)c2)C(O)C(O)C1O` (centres unmarked) [Compound 2, cyanidin 3-glucoside], the “DPPH % scavenging at 10.4 µg/mL” value in assay [1] was 37.0 ± 0.9 ^^ %. Moreover, the IC50 at 15-LO from soybeans (setting [3]) is 163 µM; in assay [2] (setting [4]) it was 1.94 µM. Moreover, the “Xanthine oxidase % inhibition at a concentration of 17 µg/mL” value (from here on “Xanthine oxidase % inhibition”) at XO from bovine milk worked out at 20.9 ± 3.4%.

`Oc1cc(O)c2cc(OC3OCC(O)C(O)C3O)c(-c3ccc(O)c(O)c3)[o+]c2c1` (centres unmarked) [Compound 3, cyanidin 3-arabinoside]: the “DPPH % scavenging at 10.4 µg/mL” value in assay [1] is listed as 40.0 ± 0.4 ^^ %. For the same compound, the IC50 is 140 µM on 15-LO from soybeans (setting [3]) and 0.882 µM in assay [2] (setting [4]). Further, at XO from bovine milk, the “Xanthine oxidase % inhibition” value is reported as 39.1 ± 2.1%.

In the case of `Oc1cc(O)c2cc(OC3OCC(O)C(O)C3O)c(-c3ccc(O)c(O)c3)[o+]c2c1` (centres unmarked) [Compound 4, cyanidin 3-xyloside], the “DPPH % scavenging at 10.4 µg/mL” value in assay [1] was 25.0 ± 5.0 ^^ %. Further, the IC50 on 15-LO from soybeans (setting [3]) was more than 198 µM; in assay [2] (setting [4]) it was 13.1 µM. Also, the “Xanthine oxidase % inhibition” value on XO from bovine milk is recorded as 11.4 ± 2.8%.

For the compound `Oc1cc(O)c2c(c1)O[C@H](c1ccc(O)c(O)c1)[C@H](O)[C@H]2c1c(O)cc(O)c2c1O[C@H](c1ccc(O)c(O)c1)[C@H](O)C2` [Compound 5, procyanidin B2], the “DPPH IC50 (concentration to give 50% scavenging)” value in assay [1] is recorded as 4.7 ± 0.3 ^# µg/mL. Moreover, the IC50 on 15-LO from soybeans (15-Lipoxygenase IC50, linoleic acid 134 µM) was 113 µM; in assay [2] (α-Glucosidase IC50, 37 °C), 8.12 µM. Moreover, on XO from bovine milk (42 µg/mL, read-out: Xanthine oxidase % inhibition at a concentration of 42 µg/mL), the inhibition at 42 µg/mL was 12.7 ± 2.8%.

Turning to `Oc1cc(O)c2c(c1)O[C@H](c1ccc(O)c(O)c1)[C@H](O)[C@H]2c1c(O)cc2c(c1O)C[C@@H](O)[C@@H](c1ccc(O)c(O)c1)O2` [Compound 6, epi-(4β→6)-epi (B5)], in assay [1], the “DPPH IC50 (concentration to give 50% scavenging)” value was 5.2 ± 0.1 ^# µg/mL. In addition, the values for the IC50 (at 15-LO from soybeans (setting [3]); in assay [2] (setting [4])) were 125 µM and 9.51 µM, respectively. Also, the inhibition at 42 µg/mL on XO from bovine milk (setting [5]) is 6.6 ± 0.7%.

In the case of `Oc1cc(O)c2c(c1)O[C@H](c1ccc(O)c(O)c1)[C@H](O)[C@H]2c1c(O)cc(O)c2c1O[C@H](c1ccc(O)c(O)c1)[C@H](O)[C@H]2c1c(O)cc(O)c2c1O[C@H](c1ccc(O)c(O)c1)[C@H](O)C2` [Compound 7, epi-(4β→8)-epi-(4β→8)-epi (C1)], the “DPPH IC50 (concentration to give 50% scavenging)” value in assay [1] was 3.2 ± 0.1 ^# µg/mL. Further, the IC50 was 66.5 µM on 15-LO from soybeans (setting [3]) and 4.38 µM in assay [2] (α-Glucosidase IC50, 37 °C). For the same compound, the inhibition at 42 µg/mL at XO from bovine milk (setting [5]) turned out to be 15.5 ± 1.5%.

Take `O=c1c(O)c(-c2ccc(O)c(O)c2)oc2cc(O)cc(O)c12` [Quercetin, quercetin, reference compound]: the “DPPH IC50 (concentration to give 50% scavenging)” value in assay [1] was 3.0 ± 0.2 ^# µg/mL.
